Where two headings read alike, the source gives them in different places.
Assays:
Assay in all cases: MIC of compounds alone and combined with antibacterials, broth microdilution (CLSI)
Format in all cases: cell-based
[1] = system: Escherichia coli (ECO) isolates; details: Escherichia coli
Procedure, shortened: (§1)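 Inoculum 5·10^5 CFU/mL (final), log phase, ca-MHB; 16-20 h, 35° C, ambient air. MIC = lowest conc. with no visible growth; ATB MIC read at each compound level.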

[2] = system: Providencia stuartii (PST) isolates; details: for MIC: Providencia stuartii, read-out: MIC
Procedure, shortened: as §1

[3] = system: Providencia rettgeri (PRE) isolates
Procedure, shortened: as §1

[4] = system: Salmonella typhimurium (STY) isolates; details: for MIC ATB in combination: STY S3371; for MIC: Salmonella enterica, TYPHIMURIUM, strain STY S3371 (OXA-1)
Procedure, shortened: as §1

[5] = system: Enterobacter aerogenes (EAE) isolates; details: for MIC: Klebsiella aerogenes, read-out: MIC
Procedure, shortened: as §1

C=CC1=C(C(=O)O)N2C(=O)[C@@H](NC(=O)/C(=N\OCC(=O)O)c3csc(N)n3)[C@H]2SC1 [FIX, Cefixime]
0.5 µg/mL: MIC ([1]; strain ECO 200344 (CTX-M-1), CLA @ 4 μg/ml+ ATB) | MIC ([1]; strain ECO 260304 (CTX-M-15), CLA @ 4 μg/ml+ ATB) | MIC ([1]; strain ECO 260508 (TEM-1, CTX-M-15, OXA-1), CLA @ 4 μg/ml+ ATB) | MIC ([1]; strain ECO UFR210 (SHV-12), CLA @ 4 μg/ml+ ATB) | MIC ([2]; strain PST UFR94 (CTX-M-14), ATB alone) | MIC ATB in combination ([3]; strain PRE UFR236, antibacterial combined with AF1 @ 8 μg/mL) | MIC ATB in combination ([5]; EAE UFR213, AF1 @ 8 μg/mL)
1020 µg/mL: MIC ([1]; strain ECO UFR209 (TEM-1, CTX-M-15), ATB alone, read-out: MIC)
0.25 µg/mL: MIC ATB in combination ([5]; EAE UFR199, AF1 @ 8 μg/mL)
> 128 µg/mL: MIC ([1]; strain ECO 260096 (CTX-M-132), ATB alone, read-out: MIC) | MIC ([1]; strain ECO 260508 (TEM-1, CTX-M-15, OXA-1), ATB alone, read-out: MIC) | MIC ([1]; strain ECO UFR16 (TEM-1, CTX-M-15, OXA-1, OXA-48), ATB alone, read-out: MIC) | MIC ([1]; strain ECO UFR17 (TEM-1, CTX-M-15, CMY-2, OXA-1, OXA-181), ATB alone, read-out: MIC) | MIC ([1]; strain ECO UFR17 (TEM-1, CTX-M-15, CMY-2, OXA-1, OXA-181), CLA @ 4 μg/ml+ ATB, read-out: MIC) | MIC ([1]; strain ECO UFR18 (CTX-M-15, OXA-204), ATB alone, read-out: MIC) | MIC ([1]; strain ECO UFR18 (CTX-M-15, OXA-204), CLA @ 4 μg/ml+ ATB, read-out: MIC) | MIC ([1]; strain ECO UFR19 (CTX-M-15, CMY-2, OXA-1, OXA-204), ATB alone, read-out: MIC) | MIC ([1]; strain ECO UFR19 (CTX-M-15, CMY-2, OXA-1, OXA-204), CLA @ 4 μg/ml+ ATB, read-out: MIC) | MIC ([1]; strain ECO UFR20 (SHV-1, CTX-M-15, OXA-1, OXA-232), CLA @ 4 μg/ml+ ATB, read-out: MIC) | MIC ([1]; strain ECO UFR74 (SHV-1, DHA-1), ATB alone, read-out: MIC) | MIC ([1]; strain ECO UFR74 (SHV-1, DHA-1), CLA @ 4 μg/ml+ ATB, read-out: MIC) | MIC ([1]; strain ECO UFR184 (CTX-M-15, CMY-4, OXA-1, OXA-204), ATB alone, read-out: MIC) | MIC ([1]; strain ECO UFR184 (CTX-M-15, CMY-4, OXA-1, OXA-204), CLA @ 4 μg/ml+ ATB, read-out: MIC) | MIC ([1]; strain ECO UFR185 (OXA-48), ATB alone, read-out: MIC) | MIC ([1]; strain ECO UFR185 (OXA-48), CLA @ 4 μg/ml+ ATB, read-out: MIC) | MIC ([1]; strain ECO UFR189 (TEM-1, CTX-M-15, OXA-48), ATB alone, read-out: MIC) | MIC ([1]; strain ECO UFR191 (TEM-1, CTX-M-24, OXA-48), ATB alone, read-out: MIC) | MIC ([1]; strain ECO UFR207 (CTX-M-15), ATB alone, read-out: MIC) | MIC ([1]; strain ECO UFR208 (SHV-12), ATB alone, read-out: MIC) | MIC ([1]; strain ECO UFR208 (SHV-12), CLA @ 4 μg/ml+ ATB, read-out: MIC) | MIC ([1]; strain ECO UFR211 (TEM-24), ATB alone, read-out: MIC) | MIC ([1]; strain ECO UFR212 (CMY-2), ATB alone, read-out: MIC) | MIC ([1]; strain ECO UFR212 (CMY-2), CLA @ 4 μg/ml+ ATB, read-out: MIC) | MIC ([1]; strain ECO UFR218 (TEM-1, SHV-1, CTX-M-15), ATB alone, read-out: MIC) | MIC ([3]; Providencia rettgeri, strain PRE UFR99 (OXA-1, OXA-181), ATB alone) | MIC ([3]; Providencia rettgeri, strain PRE UFR99 (OXA-1, OXA-181), CLA @ 4 μg/ml+ ATB) | MIC ([5]; strain EAE 49469 (AmpC), ATB alone) | MIC ([5]; strain EAE 49469 (AmpC), CLA @ 4 μg/ml+ ATB) | MIC ([5]; strain EAE 200261 (TEM-x, AmpC), ATB alone) | MIC ([5]; strain EAE 200261 (TEM-x, AmpC), CLA @ 4 μg/ml+ ATB) | MIC ([5]; strain EAE UFR201 (TEM-1, SHV-12, CTX-M-15), ATB alone) | MIC ([5]; strain EAE UFR202 (TEM-24), ATB alone) | MIC ([5]; strain EAE UFR202 (TEM-24), CLA @ 4 μg/ml+ ATB) | MIC ([5]; strain EAE UFR213 (TEM-24), ATB alone) | MIC ([5]; strain EAE UFR213 (TEM-24), CLA @ 4 μg/ml+ ATB)
>128 µg/mL: MIC ATB in combination ([3]; PRE UFR99, AF1 @ 4 μg/mL) | MIC ATB in combination ([3]; PRE UFR99, AF1 @ 8 μg/mL)
<=0.25 μg/mL: MIC ATB in combination ([2]; PST UFR94, AF1 @ 4 μg/mL) | MIC ATB in combination ([2]; PST UFR94, AF1 @ 8 μg/mL) | MIC ATB in combination ([2]; PST UFR95, AF1 @ 4 μg/mL) | MIC ATB in combination ([2]; PST UFR95, AF1 @ 8 μg/mL) | MIC ATB in combination ([4]; AF1 @ 4 μg/mL) | MIC ATB in combination ([4]; AF1 @ 8 μg/mL) | MIC ATB in combination ([5]; EAE UFR201, AF1 @ 4 μg/mL) | MIC ATB in combination ([5]; EAE UFR201, AF1 @ 8 μg/mL)
2 µg/mL: MIC ([1]; strain ECO UFR86 (ompC-, ompF-), ATB alone, read-out: MIC) | MIC ([1]; strain ECO UFR86 (ompC-, ompF-), CLA @ 4 μg/ml+ ATB, read-out: MIC) | MIC ([2]; strain PST UFR94 (CTX-M-14), CLA @ 4 μg/ml+ ATB)
8 µg/mL: MIC ([1]; strain ECO UFR174 (TEM-1, KPC-2, OXA-1), ATB alone) | MIC ([1]; strain ECO UFR186 (TEM-1, CTX-M-14, OXA-48), CLA @ 4 μg/ml+ ATB) | MIC ([1]; strain ECO UFR190 (CTX-M-24, OXA-48), CLA @ 4 μg/ml+ ATB) | MIC ([2]; strain PST UFR95 (TEM-24), CLA @ 4 μg/ml+ ATB) | MIC ([2]; strain PST UFR235 (VEB-1), CLA @ 4 μg/ml+ ATB)
16 µg/mL: MIC ([1]; strain ECO UFR175 (TEM-1, KPC-2, OXA-9), CLA @ 4 μg/ml+ ATB) | MIC ATB in combination ([5]; EAE 49469, AF1 @ 8 μg/mL) | MIC ATB in combination ([5]; EAE UFR202, AF1 @ 4 μg/mL) | MIC ([5]; strain EAE UFR199 (TEM-1b, SHV-12, KPC-2, OXA-9), CLA @ 4 μg/ml+ ATB)
0.125 µg/mL: MIC ATB in combination ([2]; PST UFR235, AF1 @ 4 μg/mL)
128 µg/mL: MIC ([1]; strain ECO UFR62 (TEM-1, CTX-M-9, KPC-2), ATB alone, read-out: MIC)
4 µg/mL: MIC ([1]; strain ECO UFR16 (TEM-1, CTX-M-15, OXA-1, OXA-48), CLA @ 4 μg/ml+ ATB) | MIC ([1]; strain ECO UFR189 (TEM-1, CTX-M-15, OXA-48), CLA @ 4 μg/ml+ ATB) | MIC ([1]; strain ECO UFR191 (TEM-1, CTX-M-24, OXA-48), CLA @ 4 μg/ml+ ATB) | MIC ([2]; strain PST UFR95 (TEM-24), ATB alone) | MIC ATB in combination ([5]; EAE 200261, AF1 @ 8 μg/mL) | MIC ATB in combination ([5]; EAE UFR202, AF1 @ 8 μg/mL)
32 µg/mL: MIC ([1]; strain ECO UFR61O (TEM-1, KPC-2), CLA @ 4 μg/ml+ ATB, read-out: MIC) | MIC ([1]; strain ECO UFR62 (TEM-1, CTX-M-9, KPC-2), CLA @ 4 μg/ml+ ATB, read-out: MIC) | MIC ([3]; ATB combined with CLA @ 4 μg/ml, strain PRE UFR236 (TEM-1, OXA-48)) | MIC ([3]; Providencia rettgeri, ATB alone, strain PRE UFR236 (TEM-1, OXA-48), read-out: MIC) | MIC ATB in combination ([5]; EAE 49469, AF1 @ 4 μg/mL) | MIC ATB in combination ([5]; EAE 200261, AF1 @ 4 μg/mL)
≤ 0.25 µg/mL: MIC ([1]; strain ECO RGN238 (OXA-1), ATB alone) | MIC ([1]; strain ECO RGN238 (OXA-1), CLA @ 4 μg/ml+ ATB) | MIC ([4]; ATB alone) | MIC ([4]; CLA @ 4 μg/ml+ ATB) | MIC ([5]; strain EAE UFR201 (TEM-1, SHV-12, CTX-M-15), CLA @ 4 μg/ml+ ATB)
1 µg/mL: MIC ([1]; strain ECO 260096 (CTX-M-132), CLA @ 4 μg/ml+ ATB) | MIC ([1]; strain ECO UFR15 (TEM-1, OXA-48), ATB alone) | MIC ([1]; strain ECO UFR15 (TEM-1, OXA-48), CLA @ 4 μg/ml+ ATB) | MIC ([1]; strain ECO UFR207 (CTX-M-15), CLA @ 4 μg/ml+ ATB) | MIC ([1]; strain ECO UFR209 (TEM-1, CTX-M-15), CLA @ 4 μg/ml+ ATB) | MIC ([1]; strain ECO UFR218 (TEM-1, SHV-1, CTX-M-15), CLA @ 4 μg/ml+ ATB) | MIC ATB in combination ([3]; strain PRE UFR236, antibacterial combined with AF1 @ 4 μg/mL) | MIC ATB in combination ([5]; EAE UFR199, AF1 @ 4 μg/mL) | MIC ATB in combination ([5]; EAE UFR213, AF1 @ 4 μg/mL)
512 µg/mL: MIC ([1]; strain ECO UFR20 (SHV-1, CTX-M-15, OXA-1, OXA-232), ATB alone) | MIC ([2]; PST UFR235, alone) | MIC ([2]; strain PST UFR235 (VEB-1), ATB alone)
> 1020 µg/mL: MIC ([5]; EAE UFR199, alone) | MIC ([5]; strain EAE UFR199 (TEM-1b, SHV-12, KPC-2, OXA-9), ATB alone)
0.063 µg/mL: MIC ATB in combination ([2]; PST UFR235, AF1 @ 8 μg/mL)
64 µg/mL: MIC ([1]; strain ECO UFR175 (TEM-1, KPC-2, OXA-9), ATB alone) | MIC ([1]; strain ECO UFR176 (KPC-3, OXA-9*), ATB alone) | MIC ([1]; strain ECO UFR190 (CTX-M-24, OXA-48), ATB alone)

— US20200017496A1 (priority 2017, published 2020)
